Key:
[1] = target: Kelch domain of human KEAP1 (321-624 aa) (Homo sapiens (Human), UniProt Q14145); test: KEAP1 KELCH ThermoFluor binding assay; details: KEAP Kelch […], 1,8-ANS, pH 7.0, average of results obtained, read-out: Tf Kd;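 also: Ligand-induced melting temperature shift of E. coli-expressed KEAP1 Kelch protein, Kd estimated from concentration-response curves of ΔTm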
[2] = test system: Glo-Response ARE-luc2P HEK293 cell line; test: ARE luciferase reporter cell-based assay; details: average of results obtained;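 also: luciferase signal tracks Nrf2 activation of the ARE once compounds disrupt KEAP1-Nrf2 binding, read with One-Glo reagent, DMSO serving as low control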
Protocol: The ARE assay utilizes a luciferase reporter cell line where the signal is proportional to NrF2 activation of the ARE. The cell line is commercially available from Promega and was prepared by stably transfecting HEK293 cells with a vector (pGL4.11) which contains the ARE response element upstream of a minimal promoter. The promoter drives expression of luc2 firefly luciferase gene. Upon disruption of KEAP1-Nrf2 binding by compound, Nrf2 translocates into the nucleus where it binds to the ARE and activates transcription of luciferase.
The materials used in this ARE assay are as follows: Glo-Response ARE-luc2P HEK293 cell line and One-Glo Luciferase Assay System were purchased from Promega (Madison, Wis.). Dulbecco's Modified Eagle medium ((DMEM), low glucose, GlutaMAX, pyruvate), fetal bovine serum (certified, heat inactivated), hygromycin B, Dulbecco's phosphate-buffered saline were purchased from Life Technologies (Grand Island, N.Y.). Penicillin, streptomycin solution (100×) and 0.05% trypsin-EDTA were purchased from Corning (Manassas, Va.). DMSO was purchased from EMD Millipore.
The ARE assay protocol is as follows: cells were maintained in growth medium (DMEM+10% FBS, 200 μg/mL hygromycin B, p-s) between 20-90% confluency by splitting twice per week. One day before the assay, cells were trypsinized, counted to determine viable cell count, and re-suspended in assay medium (DMEM+10% FBS, p-s) at 250,000 cells/mL. […] 100% DMSO was used as the low control. A 11-point dose series of the control compound was included on every plate. Compounds were spotted to an intermediate plate (Greiner #781280 V-bottom 384 well plate) using the Echo acoustic dispenser (Labscyte San Jose, Calif.). Spot size was 240 nL.
On the day of the assay, 60 mL per well of assay medium was added to the pre-spotted plate to make 2× compound stocks using the Combi (Thermo Waltham, Mass.). Compound and medium were mixed on the Janus and 20 mL of 2×compound stock was added to the cell plate which already contained 20 mL of assay medium from cell plating. […] The plates were returned to the tissue culture incubator for 24 hours.
The next day, luciferase activity was measured according to the manufacturer's protocol for One-Glo luciferase reagent. The plates were removed from the incubator and allowed to equilibrate to room temperature for 30 min. Forty microliters of One-Glo reagent (equilibrated to room temperature) was added per well using the Combi. The plates were mixed on an orbital shaker for 3 min. Luminescence was read on the BMG Pherastar multiplate reader (Cary, N.C.) using the luminescence protocol (1 sec interval).
The dose-response data were analyzed in Genedata Screener using 4PL nonlinear regression model. Raw luminescence counts as well as normalized values were used for data analysis.

Chain of Kelch domain of human KEAP1 (321-624 aa) (Q14145 321-624): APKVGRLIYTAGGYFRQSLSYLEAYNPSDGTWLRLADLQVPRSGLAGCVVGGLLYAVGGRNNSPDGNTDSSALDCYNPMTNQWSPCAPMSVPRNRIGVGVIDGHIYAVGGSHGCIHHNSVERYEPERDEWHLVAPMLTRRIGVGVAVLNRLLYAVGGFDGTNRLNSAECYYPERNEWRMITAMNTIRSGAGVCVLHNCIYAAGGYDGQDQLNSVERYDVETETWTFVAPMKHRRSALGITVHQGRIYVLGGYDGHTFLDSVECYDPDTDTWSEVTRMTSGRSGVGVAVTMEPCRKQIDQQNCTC

Kd [1] [nM] | Compound | EC50 ([2]; Homo sapiens, HEK293, 24 h) [nM] | EC50 ([2]; 24 hours) [nM]
1730 | Cc1ccc([C@@H](c2ccn3c(C(F)(F)F)nnc3c2C)C(C)(C)C(=O)O)cc1CN1CC2(CCOCC2)Oc2nc(OCCO)ccc2S1(=O)=O (single isomer, unassigned) [Example 606, (*S)-3-(3-((7′-(2-Hydroxyethoxy)-1′,1′-dioxido-2,3,5,6-tetrahydrospiro[pyran-4,4′-pyrido[2,3-b][1,4,5]oxathiazepin]-2′(3′H)-yl)methyl)-4-methylphenyl)-2,2-dimethyl-3-(8-methyl-3-(trifluoromethyl)-[1,2,4]triazolo[4,3-a]pyridine-7-yl)propanoic Acid] | > 20000 | 
298 | Cc1cnc2c(c1)S(=O)(=O)N(Cc1cc([C@@H](c3ccn4c(C(F)(F)F)nnc4c3)C(C)(C)C(=O)O)ccc1C)CC1(CC1)O2 (single isomer, unassigned) [Example 323, (*S)-2,2-Dimethyl-3-(4-methyl-3-((8′-methyl-1′,1′-dioxidospiro[cyclopropane-1,4′-pyrido[2,3-b][1,4,5]oxathiazepin]-2′(3′H)-yl)methyl)phenyl)-3-(3-(trifluoromethyl)-[1,2,4]triazolo[4,3-a]pyridin-7-yl)propanoic Acid] | 16200 | 
< 1 | Cc1ccc([C@@H](c2ccn3c(C(F)(F)F)nnc3c2C)C(C)(C)C(=O)O)cc1CN1CC2(CC2)Oc2nc(OCCN3CCCCC3)ccc2S1(=O)=O (single isomer, unassigned) [Example 371, (*S)-3-(3-1′,1′-Dioxido-7′-(2-(piperidin-1-yl)ethoxy)spiro[cyclopropane-1,4′-pyrido[2,3-b][1,4,5]oxathiazepin]-2′(3′H)-yl)methyl)-4-methylphenyl)-2,2-dimethyl-3-(8-methyl-3-(trifluoromethyl)-[1,2,4]triazolo[4,3-a][pyridine-7-yl)propanoic Acid] | 6 | 
< 1 | Cc1ccc([C@H](c2ccn3c(C(F)(F)F)nnc3c2C)C(C)(C)C(=O)O)cc1CN1CC2(CCOCC2)Oc2nc(NCCN3CCOCC3)c(C)cc2S1(=O)=O (single isomer, unassigned) [Example 365, (*R)-2,2-Dimethyl-3-(4-methyl-3-((8′-methyl-7′-((2-morpholinoethyl)amino)-1′,1′-dioxido-2,3,5,6-tetrahydrospiro[pyran-4,4′-pyrido[2,3-b][1,4,5]oxathiazepin]-2′(3′H)-yl)methyl)phenyl)-3-(8-methyl-3-(trifluoromethyl)-[1,2,4]triazolo[4,3-a]pyridine-7-yl)propanoic Acid] | 23.9 | 
< 1 | Cc1ccc([C@H](CC(=O)O)c2ccn3c(C(F)(F)F)nnc3c2C)nc1CN1CC2(CC2)Oc2ncccc2S1(=O)=O (single isomer, unassigned) [Example 483, (*R)-3-(6-((1′,1′-Dioxidospiro[cyclopropane-1,4′-pyrido[2,3-b][1,4,5]oxathiazepin]-2′(3′H)-yl)methyl)-5-methylpyridin-2-yl)-3-(8-methyl-3-(trifluoromethyl)-[1,2,4]triazolo[4,3-a]pyridin-7-yl)propanoic Acid] | 3450 | 

The next lines start with the molecule.

Compound | Kd [1] [nM] | EC50 ([2]; Homo sapiens, HEK293, 24 h) [nM] | EC50 ([2]; 24 hours) [nM]
Cc1ccc([C@@H](CC(=O)O)c2ccn3c(C(F)(F)F)nnc3c2C)cc1CN1C[C@@H]2CCC(F)(F)CN2c2ncccc2S1(=O)=O (single isomer, unassigned) [Example 455, (*R)-3-(3-(((*S)-10,10-Difluoro-5,5-dioxido-7,7a,8,9,10,11-hexahydro-6H-dipyrido[2,1-d:2′,3′-f][1,2,5]thiadiazepin-6-yl)methyl)-4-methylphenyl)-3-(8-methyl-3-(trifluoromethyl)-[1,2,4]triazolo[4,3-a]pyridin-7-yl)propanoic Acid] | < 1 | 798 | 
Cc1ccc([C@H](CC(=O)O)c2ccc3c(nnn3C)c2C(F)F)cc1CN1CC2CCCN2c2ncccc2S1(=O)=O (single isomer, unassigned) [Example 72, (*S)-3-(4-(Difluoromethyl-1-methyl-1H-benzo[d][1,2,3]triazol-5-yl)-3-(3-(((R-5,5-dioxido-7a,8,9,10-tetrahydropyridi[2,3-f]pyrrolo[2,1-d][1,2,5]thiadiazepin-6(7H)-yl)methyl)-4-methylphenyl)propanoic Acid] | 5.4 |  | 1970
Cc1cnc2c(c1)S(=O)(=O)N(Cc1cc([C@H](c3ccc4c(nnn4C4CC4)c3C)C(C)(C)C(=O)O)ccc1C)CC1(CNC1)O2 (single isomer, unassigned) [Example 645, (*R)-3-(1-Cyclopropyl-4-methyl-1H-benzo[d][1,2,3]triazol-5-yl)-2,2-dimethyl-3-(4-methyl-3-((8′-methyl-1′,1′-dioxidospiro[azetidine-3,4′-pyrido[2,3-b][1,4,5]oxathiazepin]-2′(3′H)-yl)methyl)phenyl)propanoic Acid] | < 1 | 1.5 | 
CCn1nnc2c(C)c([C@@H](c3cnc(C)c(CN4CC5(CCOCC5)Oc5ncccc5S4(=O)=O)c3)C(C)(C)C(=O)O)ccc21 (single isomer, unassigned) [Example 59, (*S)-3-(5-((1′,1′-Dioxido-2,3,5,6-tetrahydrospiro[pyran-4,4′-pyrido[2,3-b][1,4,5]oxathiazepin]-2′(3′H)-yl)methyl)-6-methylpyridin-3-yl)-3-(1-ethyl-4-methyl-1H-benzo[d][1,2,3]triazol-5-yl)-2,2-dimethylpropanoic Acid] | 1.2 | 116 | 
Cc1cc2cc([C@H](CC(=O)O)c3ccc(C)c(CN4C[C@H]5CCCCN5c5ncccc5S4(=O)=O)c3)n(C)c2nn1 (single isomer, unassigned) [Example 445, (*R)-3-(3,7-Dimethyl-7H-pyrrolo[2,3-c]pyridazin-6-yl)-3-(3-(((*R)-5,5-dioxido-7,7a,8,9,10,11-hexahydro-6H-dipyrido[2,1-d:2′,3′-f][1,2,5]thiadiazepin-6-yl)methyl)-4-methylphenyl)propanoic Acid] | < 1 | 716 | 
Cc1ccc([C@@H](CC(=O)O)c2cc(OC(F)F)c3c(c2)nnn3C)cc1CN1C[C@H]2CCCCN2c2ncccc2S1(=O)=O (single isomer, unassigned) [Example 3, (*R)-3-(7-(Difluoromethoxy)-1-methyl-1H-benzo[d][1,2,3]triazol-5-yl)-3-(3-(((*R)-5,5-dioxido-7,7a,8,9,10,11-hexahydro-6H-dipyrido[2,1-d:2′,3′-f][1,2,5]thiadiazepin-6-yl)methyl)-4-methylphenyl)propanoic Acid] | 0.041 | 35 | 
Cc1cnc([C@@H](c2ccn3c(C(F)(F)F)nnc3c2C)C(C)(C)C(=O)O)cc1CN1CC2(CC2)Oc2nc(OCCN3CCCC3)c(C)cc2S1(=O)=O (single isomer, unassigned) [Example 590, (*S)-2,2-Dimethyl-3-(8-methyl-3-(trifluoromethyl)-[1,2,4]triazolo[4,3-a]pyridin-7-yl)-3-(5-methyl-4-((8′-methyl-1′,1′-dioxido-7′-(2-(pyrrolidin-1-yl)ethoxy)spiro[cyclopropane-1,4′-pyrido[2,3-b][1,4,5]oxathiazepin]-2′(3′H)-yl)methyl)pyridin-2-yl)propanoic Acid] | < 1 | 33.2 | 

Source: patent US10947252B2, “Inhibitors of KEAP1-Nrf2 protein-protein interaction” (Janssen Pharmaceutica NV, priority 2018, dated 2021)
